Here are results for 17 molecules from patent publication US20230066011A1, “PYRROLOPYRIMIDINE DERIVATIVE, AND PHARMACEUTICAL COMPOSITION FOR PREVENTING OR TREATING PROTEIN KINASE-RELATED DISEASE COMPRISING SAME AS ACTIVE INGREDIENT” (VORONOI CO., LTD., priority 2019, published 2023).

Where only a bound is given, the exact number is not on record here.

The target of one experiment is LRRK2 (Homo sapiens, UniProt Q5S007). The experiment is described as follows: LRRK2 enzyme inhibition, ADP-Glo kinase assay. The arrangement: purchased Invitrogen PR8604B. The conditions noted are these: ATP 10 μM. Format: biochemical. In outline:
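ADP-Glo luminescent read-out of ADP formed by purified human LRRK2 enzyme (25 ng), 10 μM ATP, 0.2 μg substrate, 25° C for 2 h, Tris-HCl pH 7.4 buffer with MgCl2, BSA, DTT. Inhibition versus untreated solvent control over twelve final concentrations (50 μM downward) gives IC50.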
For orientation: In ADP-Glo the light output rises with the ADP produced.

The target of another experiment is T1, TTK (Homo sapiens, UniProt P33981).
T1 sequence (P33981 1-857): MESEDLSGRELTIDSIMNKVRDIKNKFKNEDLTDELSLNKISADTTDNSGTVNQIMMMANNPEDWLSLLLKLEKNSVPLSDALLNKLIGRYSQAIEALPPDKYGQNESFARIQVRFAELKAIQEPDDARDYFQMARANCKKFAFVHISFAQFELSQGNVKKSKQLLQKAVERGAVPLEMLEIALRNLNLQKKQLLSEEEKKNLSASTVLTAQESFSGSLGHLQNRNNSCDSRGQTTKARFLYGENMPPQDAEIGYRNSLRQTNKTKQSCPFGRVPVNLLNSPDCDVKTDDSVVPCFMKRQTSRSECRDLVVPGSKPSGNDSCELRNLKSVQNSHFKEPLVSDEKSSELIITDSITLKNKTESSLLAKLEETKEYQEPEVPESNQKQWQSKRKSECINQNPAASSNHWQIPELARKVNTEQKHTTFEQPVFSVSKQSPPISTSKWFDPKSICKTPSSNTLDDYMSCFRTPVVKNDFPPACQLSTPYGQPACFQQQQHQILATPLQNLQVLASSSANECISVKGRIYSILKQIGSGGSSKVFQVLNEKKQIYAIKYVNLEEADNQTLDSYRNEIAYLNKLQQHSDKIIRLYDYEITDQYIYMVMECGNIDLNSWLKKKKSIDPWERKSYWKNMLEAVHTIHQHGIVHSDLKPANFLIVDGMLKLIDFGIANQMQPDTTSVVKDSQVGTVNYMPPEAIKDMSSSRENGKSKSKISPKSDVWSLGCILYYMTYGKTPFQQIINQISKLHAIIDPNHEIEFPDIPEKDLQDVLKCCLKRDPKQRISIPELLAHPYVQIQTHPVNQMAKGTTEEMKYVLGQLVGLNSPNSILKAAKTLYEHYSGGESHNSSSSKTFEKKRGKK
Put plainly: TTK enzyme inhibition, ADP-Glo kinase assay. Format: biochemical. The arrangement: purchased SignalChem T20-10G. The conditions noted are these: ATP 5 μM. The method, boiled down:
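Purified human TTK (7.5 ng) was reacted with 5 μM ATP and 0.2 μg MBP substrate for 4 h at 25 °C in 40 mM Tris-HCl pH 7.4, 20 mM MgCl2, 0.1 mg/mL BSA, 50 μM DTT. ADP formation was read by ADP-Glo luminescence, and IC50 was taken relative to solvent control.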

A further experiment relates to human DYRK1A and tau. Put plainly: Inhibition of tau phosphorylation, ClariCELL Kinase Cell-Based Assay, HEK 293 cells expressing human DYRK1A and tau. The note with it: for inhibition at 1 µM: HEK293, read-out: % inhibition at 1 uM, tau phosphorylation, compound 1 uM; for inhibition at 0.25 µM / inhibition at 0.5 µM: HEK293, tau phosphorylation; for inhibition at 0.25 µM: compound 0.25 uM; for inhibition at 0.5 µM: compound 0.5 uM. In outline:
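Cell-based service assay: HEK 293 cells transiently expressing human DYRK1A and tau were treated with compound and lysed. Released tau was plate-captured and its phosphorylation quantified by ELISA with a phospho-tau-specific antibody.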

Sequence of LRRK2 (Q5S007 970-2527 limits assumed): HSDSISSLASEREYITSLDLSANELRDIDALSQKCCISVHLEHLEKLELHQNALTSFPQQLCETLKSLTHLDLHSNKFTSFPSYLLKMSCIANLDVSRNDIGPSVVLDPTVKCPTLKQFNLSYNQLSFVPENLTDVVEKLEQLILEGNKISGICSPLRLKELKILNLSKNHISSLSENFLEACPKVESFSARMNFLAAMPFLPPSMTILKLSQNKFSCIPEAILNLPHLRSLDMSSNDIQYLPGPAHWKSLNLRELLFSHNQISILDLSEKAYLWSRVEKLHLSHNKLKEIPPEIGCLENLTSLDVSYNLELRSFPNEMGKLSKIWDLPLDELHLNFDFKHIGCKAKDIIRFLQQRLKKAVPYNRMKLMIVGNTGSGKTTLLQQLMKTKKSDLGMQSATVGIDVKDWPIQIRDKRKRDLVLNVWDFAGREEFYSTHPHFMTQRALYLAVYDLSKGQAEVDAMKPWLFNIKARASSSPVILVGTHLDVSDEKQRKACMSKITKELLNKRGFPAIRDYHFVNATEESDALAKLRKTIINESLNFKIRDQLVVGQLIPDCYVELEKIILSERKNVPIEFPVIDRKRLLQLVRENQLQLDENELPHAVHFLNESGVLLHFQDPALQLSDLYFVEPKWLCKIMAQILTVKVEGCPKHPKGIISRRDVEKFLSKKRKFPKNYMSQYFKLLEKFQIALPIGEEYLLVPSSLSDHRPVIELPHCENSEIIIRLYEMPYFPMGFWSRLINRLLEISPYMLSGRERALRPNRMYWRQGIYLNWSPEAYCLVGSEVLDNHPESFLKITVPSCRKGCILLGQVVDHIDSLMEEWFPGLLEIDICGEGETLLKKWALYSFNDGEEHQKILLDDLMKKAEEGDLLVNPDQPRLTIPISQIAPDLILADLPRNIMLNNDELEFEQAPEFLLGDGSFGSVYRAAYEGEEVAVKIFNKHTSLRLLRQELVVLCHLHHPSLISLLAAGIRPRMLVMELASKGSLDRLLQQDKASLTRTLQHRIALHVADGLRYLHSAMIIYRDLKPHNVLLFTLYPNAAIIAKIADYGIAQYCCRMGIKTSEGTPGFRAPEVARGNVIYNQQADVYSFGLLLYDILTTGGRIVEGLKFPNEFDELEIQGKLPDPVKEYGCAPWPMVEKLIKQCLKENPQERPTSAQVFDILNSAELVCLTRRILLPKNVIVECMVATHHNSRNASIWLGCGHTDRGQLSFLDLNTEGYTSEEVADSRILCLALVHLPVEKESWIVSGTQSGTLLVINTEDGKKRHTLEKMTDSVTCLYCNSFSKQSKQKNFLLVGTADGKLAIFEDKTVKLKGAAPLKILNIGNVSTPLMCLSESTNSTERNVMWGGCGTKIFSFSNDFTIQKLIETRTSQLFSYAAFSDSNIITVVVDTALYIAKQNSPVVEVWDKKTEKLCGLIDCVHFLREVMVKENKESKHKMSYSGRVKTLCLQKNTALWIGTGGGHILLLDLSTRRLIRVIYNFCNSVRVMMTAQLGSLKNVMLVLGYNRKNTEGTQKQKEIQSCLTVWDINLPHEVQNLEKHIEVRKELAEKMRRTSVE

For the molecule `O=C(c1ccc(Nc2nc(NC3CC3)c3c(C(F)(F)F)c[nH]c3n2)c2c1CCO2)N1CCC(N2CCOCC2)CC1` [Example 434, (7-((4-(cyclopropyl-amino)5-(trifluoromethyl)-7H-pyrrolo[2,3-d]pyrimidin-2-yl)amino)-2,3-dihydrobenzo-furan-4-yl)(4-morpho-linopiperidin-1-yl)methanone], the IC50 against LRRK2 was < 100 nM. For the same molecule, the IC50 against TTK is < 100 nM. Moreover, in the experiment on human DYRK1A and tau, the inhibition at 1 µM was determined as 87.3%, the inhibition at 0.25 µM was 47.4% and 0.5 µM produced 65.2% inhibition.

With `CCCNc1nc(Nc2ccc(C(=O)N3CCC(N4CCOCC4)CC3)c3c2OCC3)nc2[nH]cc(C(F)(F)F)c12` [Example 446, (4-morpholino-piperidin-1-yl)(7-((4-(propylamino)-5-(trifluoromethyl)-7H-pyrrolo[2,3-d]pyrimidin-2-yl)amino)-2,3-dihydrobenzo-furan-4-yl)methanone], the IC50 against LRRK2 is < 100 nM. Further, the IC50 at TTK was < 100 nM. Further, in the experiment on human DYRK1A and tau, the inhibition at 1 µM amounted to 84.9%, testing at 0.25 µM gave an inhibition of 25.7% and the inhibition at 0.5 µM is 61.1%.

On to `CCNc1nc(Nc2ccc(C(=O)N3CCC(N4CCOCC4)CC3)c3c2OCC3)nc2[nH]cc(C(F)(F)F)c12` [Example 438, (7-((4-(ethylamino)-5-(trifluoromethyl)-7H-pyrrolo[2,3-d]pyrimidin-2-yl)amino)-2,3-dihydrobenzo-furan-4-yl)(4-morpho-linopiperidin-1-yl)methanone], for which the IC50 on LRRK2 is < 100 nM. In addition, the IC50 against TTK is < 100 nM. In addition, in the experiment on human DYRK1A and tau, the inhibition at 1 µM came to 86.8%, testing at 0.25 µM gave an inhibition of 46.3% and the inhibition at 0.5 µM stood at 69.7%.

For `CNc1nc(Nc2ccc(C(=O)N3CCC(N4CCOCC4)CC3)c3c2OCC3)nc2[nH]cc(C(F)(F)F)c12` [Example 217, (7-((4-(methylamino)-5-(trifluoromethyl)-7H-pyrrolo[2,3-d]pyrimidin-2-yl)amino)-2,3-dihydrobenzofuran-4-yl)(4-morpholinopiperidin-1-yl)methanone], the IC50 on LRRK2 was < 100 nM. Besides, the IC50 against TTK is < 100 nM. In the experiment with human DYRK1A and tau, the inhibition at 1 µM is 77.9%, testing at 0.25 µM gave an inhibition of 32% and testing at 0.5 µM gave an inhibition of 63.7%.

For the molecule `CNc1nc(Nc2ccc(C(=O)N3CCN(C4COC4)CC3)c3c2OCCO3)nc2[nH]cc(C(F)(F)F)c12` [Example 397, (8-((4-(methylamino)-5-(trifluoromethyl)-7H-pyrrolo[2,3-d]pyrimidin-2-yl)amino)-2,3-dihydrobenzo[b] [1,4]dioxin-5-yl) (4-(oxetan-3-yl)piperazin-1-yl)methanone], at LRRK2, the IC50 was < 100 nM. For the same molecule, the IC50 at TTK was < 100 nM. Further, in the experiment on human DYRK1A and tau, the inhibition at 1 µM worked out at 52.8%, the inhibition at 0.25 µM worked out at 12.9% and the inhibition at 0.5 µM is 41.1%.

As for `O=C(c1ccc(Nc2nc(C3CC3)c3c(C(F)(F)F)c[nH]c3n2)c2c1OCCO2)N1CCC(N2CCOCC2)CC1` [Example 228, (8-((4-cyclopropyl-5-(trifluoromethyl)-7H-pyrrolo[2,3-d]pyrimidin-2-yl)amino)-2,3-dihydrobenzo[b][1,4]dioxin-5-yl)(4-morpholinopiperidin-1-yl)methanone], the IC50 at LRRK2 is < 100 nM. Further, on TTK, the IC50 is < 100 nM. For the same molecule, in the experiment on human DYRK1A and tau, the inhibition at 1 µM came to 49%, the inhibition at 0.25 µM worked out at 9.3% and the inhibition at 0.5 µM came to 24.7%.

For `COCCNc1nc(Nc2ccc(C(=O)N3CCC(N4CCOCC4)CC3)c3c2OCC3)nc2[nH]cc(C#N)c12` [Example 359, 4-((2-methoxy-ethyl)ami-no)-2-((4-(4-morpholino-piperidine-1-carbonyl)-2,3-dihydro-benzofuran-7-yl)amino)-7H-pyrrolo[2,3-d]pyrimidine-5-carbonitrile], on TTK, the IC50 is < 100 nM. In the experiment on human DYRK1A and tau, the inhibition at 1 µM worked out at 55.9%, at 0.25 µM the inhibition was 23.4% and 0.5 µM produced 42.8% inhibition.

Regarding `C=CCNc1nc(Nc2ccc(S(=O)(=O)N3CCC(N4CCOCC4)CC3)cc2OC)nc2[nH]cc(C#N)c12` [Example 361, 4-(allylamino)-2-((2-methoxy-4-((4-morpholino-piperidin-1-yl)sulfonyl)phenyl)amino)-7H-pyrrolo[2,3-d]pyrimidine-5-carbonitrile], the IC50 on LRRK2 and at TTK was < 100 nM each time.

`O=C(c1ccc(Nc2nc(NC3CCCC3)c3c(C(F)(F)F)c[nH]c3n2)c2c1OCCO2)N1CCN(C2COC2)CC1` [Example 414, (8-((4-(cyclopentyl-amino)-5-(trifluoromethyl)-7H-pyrrolo[2,3-d]pyrimidin-2-yl)amino)-2,3-dihydrobenzo[b] [1,4]dioxin-5-yl) (4-(oxetan-3-yl)piperazin-1-yl)methanone]: the IC50 on LRRK2 and against TTK was < 100 nM each time.

`CCNc1nc(Nc2ccc(C(=O)N3CCC(N4C[C@@H]5C[C@H]4CO5)CC3)c3c2OCC3)nc2[nH]cc(C(F)(F)F)c12` [Example 468]: on LRRK2, the IC50 is < 100 nM. Besides, on TTK, the IC50 was < 100 nM. Also, in the experiment with human DYRK1A and tau, the inhibition at 1 µM was determined as 92.5%, 0.25 µM produced 50.3% inhibition and the inhibition at 0.5 µM was found to be 75.4%.

`COCCNc1nc(Nc2ccc(C(=O)N3CCN(C4COC4)CC3)c3c2OCCO3)nc2[nH]cc(C(F)(F)F)c12` [Example 403, (8-((4-((2-methoxyethyl)-amino)-5-(trifluoromethyl)-7H-pyrrolo[2,3-d]pyrimidin-2-yl)amino)-2,3-dihydrobenzo[b] [1,4]dioxin-5-yl) (4-(oxetan-3-yl)piperazin-1-yl)methanone]: the IC50 on LRRK2 and at TTK was < 100 nM throughout.

As to `COc1cc(S(=O)(=O)N2CCC(N3CCOCC3)CC2)ccc1Nc1nc(C2CC2)c2c(C(F)(F)F)c[nH]c2n1` [Example 226], the figures for the IC50 against LRRK2 and against TTK were 101 to 300 nM and < 100 nM, respectively.

Take `N#Cc1c[nH]c2nc(Nc3ccc(C(=O)N4CCC(N5CCOCC5)CC4)c4c3OCCO4)nc(C3CC3)c12` [Example 221, 4-cyclopropyl-2-((8-(4-morpholinopiperidine-1-carbonyl)-2,3-dihydrobenzo[b][1,4]dioxin-5-yl)amino)-7H-pyrrolo[2,3-d]pyrimidine-5-carbonitrile]: the IC50 against LRRK2 and against TTK was < 100 nM in each case.

As for `CNc1nc(Nc2ccc(S(=O)(=O)N3CCC(N4CCOCC4)CC3)cc2OC)nc2[nH]cc(C(F)(F)F)c12` [Example 157, N^2-(2-methoxy-4-((4-morpholinopiperidin-1-yl)sulfonyl)phenyl)-N^4-methyl-5-(trifluoromethyl)-7H-pyrrolo[2,3-d]pyrimidine-2,4-diamine 2,2,2-trifluoroacetate], on TTK, the IC50 is < 100 nM. Also, in the experiment on human DYRK1A and tau, the inhibition at 1 µM was determined as 83.9%, testing at 0.25 µM gave an inhibition of 41.2% and the inhibition at 0.5 µM is 71%.

As for `COc1cc(S(=O)(=O)N2CCC(N3C[C@H]4C[C@@H]3CO4)CC2)ccc1Nc1nc(C2CC2)c2c(C(F)(F)F)c[nH]c2n1` [Example 473, N-(4-((4-((1R,4R)-2-oxa-5-azabicyclo[2.2.1]heptan-5-yl)piperidin-1-yl)sulfonyl)-2-methoxyphenyl)-4-cyclopropyl-5-(trifluoromethyl)-7H-pyrrolo[2,3-d]pyrimidin-2-amine], the IC50 on TTK is < 100 nM. Also, in the experiment with human DYRK1A and tau, the inhibition at 1 µM is 73.3%, the inhibition at 0.25 µM is 16.3% and the inhibition at 0.5 µM came to 35.8%.

On to `CCN1CCP(=O)(c2ccc(Nc3nc(C4CC4)c4c(C#N)c[nH]c4n3)c(OC)c2)CC1` [Example 261], for which the IC50 against LRRK2 and against TTK was < 100 nM throughout.

As for `N#Cc1c[nH]c2nc(Nc3ccc(C(=O)N4CCOCC4)c4c3OCCO4)nc(NCC3CCCC3)c12` [Example 133, 4-((cyclopentylmethyl)amino)-2-((8-(morpholine-4-carbonyl)-2,3-dihydrobenzo[b][1,4]dioxin-5-yl)amino)-7H-pyrrolo[2,3-d]pyrimidine-5-carbonitrile], the IC50 at LRRK2 and against TTK was < 100 nM each time.

In general, IC50 refers to the concentration that inhibits the measured activity by half. Broadly, the inhibition is how much of the control response was suppressed.
